Test results published in ChEMBL document CHEMBL1153550, “In vitro study of Candida tropicalis isolates exhibiting paradoxical growth in the presence of high concentrations of caspofungin” (2007).
Converted amounts (≈) assume the structure as drawn. The source made the active and inactive calls. No cut-off for these calls is given here.

Assays:
Candida tropicalis [1] = test: Antifungal activity against > 2 x 10^7 CFU/ml Candida tropicalis isolate 8 in antibiotic medium 3 assessed as partial growth after 24 hrs by broth microdilution method; assay type: functional, organism-based
Candida tropicalis [2] = test: Antifungal activity against > 2 x 10^7 CFU/ml Candida tropicalis isolate 7 in antibiotic medium 3 assessed as partial growth after 24 hrs by broth microdilution method; assay type: functional, organism-based
Candida tropicalis [3] = test: Antifungal activity against > 2 x 10^7 CFU/ml Candida tropicalis isolate 6 in antibiotic medium 3 assessed as partial growth after 24 hrs by broth microdilution method; assay type: functional, organism-based
Candida tropicalis [4] = test: Antifungal activity against > 2 x 10^7 CFU/ml Candida tropicalis isolate 5 in antibiotic medium 3 assessed as partial growth after 24 hrs by broth microdilution method; assay type: functional, organism-based
Candida tropicalis [5] = test: Antifungal activity against > 2 x 10^7 CFU/ml Candida tropicalis isolate 15 in RPMI 1640 medium assessed as partial growth after 24 hrs by broth microdilution method; assay type: functional, organism-based
Candida tropicalis [6] = test: Antifungal activity against > 2 x 10^7 CFU/ml Candida tropicalis isolate 7 in RPMI 1640 medium assessed as partial growth after 24 hrs by broth microdilution method; assay type: functional, organism-based
Candida tropicalis [7] = test: Antifungal activity against > 2 x 10^7 CFU/ml Candida tropicalis isolate 4 in RPMI 1640 medium assessed as partial growth after 24 hrs by broth microdilution method; assay type: functional, organism-based
Candida tropicalis [8] = test: Antifungal activity against 2 x 10^7 CFU/ml Candida tropicalis isolate 9 in antibiotic medium 3 after 24 hrs by broth microdilution method; assay type: functional; conditions: isolate 9, 24 h
Candida tropicalis [9] = test: Antifungal activity against 2 x 10^7 CFU/ml Candida tropicalis isolate 15 in RPMI 1640 medium after 24 hrs by broth microdilution method; assay type: functional; conditions: isolate 15, 24 h
Candida tropicalis [10] = test: Antifungal activity against 2 x 10^7 CFU/ml Candida tropicalis isolate 13 in RPMI 1640 medium after 24 hrs by broth microdilution method; assay type: functional; conditions: isolate 13, 24 h
Candida tropicalis [11] = test: Antifungal activity against 2 x 10^7 CFU/ml Candida tropicalis isolate 8 in RPMI 1640 medium after 24 hrs by broth microdilution method; assay type: functional; conditions: isolate 8, 24 h
Candida tropicalis [12] = test: Antifungal activity against 2 x 10^7 CFU/ml Candida tropicalis isolate 5 in RPMI 1640 medium after 24 hrs by broth microdilution method; assay type: functional; conditions: isolate 5, 24 h
Candida tropicalis [13] = test: Antifungal activity against 10^5 CFU/ml Candida tropicalis isolate 14 in RPMI 1640 medium at =< 0.09 ug/ml after 24 hrs followed by incubation in drug free medium for 48 hrs by broth microdilution method; assay type: functional, organism-based
Candida tropicalis [14] = test: Antifungal activity against 10^5 CFU/ml Candida tropicalis isolate 8 in RPMI 1640 medium at 12.5 ug/ml treated for 48 hrs followed by incubation in drug free medium for 48 hrs by broth microdilution method; assay type: functional, organism-based
Candida tropicalis [15] = test: Antifungal activity against 10^5 CFU/ml Candida tropicalis isolate 11 in RPMI 1640 medium at 12.5 ug/ml treated for 48 hrs followed by incubation in drug free medium for 48 hrs by broth microdilution method; assay type: functional, organism-based
Candida tropicalis [16] = test: Antifungal activity against 10^5 CFU/ml Candida tropicalis isolate 13 in RPMI 1640 medium at 12.5 ug/ml treated for 48 hrs followed by incubation in drug free medium for 48 hrs by broth microdilution method; assay type: functional, organism-based
Candida tropicalis [17] = test: Antifungal activity against 10^5 CFU/ml Candida tropicalis isolate 14 in RPMI 1640 medium at 12.5 ug/ml treated for 48 hrs followed by incubation in drug free medium for 48 hrs by broth microdilution method; assay type: functional, organism-based
Candida tropicalis [18] = test: Antifungal activity against Candida tropicalis isolate 7 in RPMI 1640 medium assessed as paradoxical growth at 6.25 ug/ml after 24 hrs by broth microdilution method; assay type: functional, organism-based
Candida tropicalis [19] = test: Antifungal activity against Candida tropicalis ATCC 750 in RPMI 1640 medium assessed as paradoxical growth at 6.25 ug/ml after 24 hrs by broth microdilution method; assay type: functional, organism-based
Candida tropicalis [20] = test: Antifungal activity against Candida tropicalis isolate 6 in RPMI 1640 medium assessed as paradoxical growth at 12.5 ug/ml after 48 hrs by broth microdilution method; assay type: functional, organism-based
Candida tropicalis [21] = test: Antifungal activity against Candida tropicalis ATCC 750 in RPMI 1640 medium assessed as paradoxical growth at 12.5 ug/ml after 48 hrs by broth microdilution method; assay type: functional, organism-based
Candida tropicalis [22] = test: Antifungal activity against 10^5 CFU/ml Candida tropicalis clinical isolate in RPMI 1640 medium treated for 24 hrs followed by incubation in drug free medium for 48 hrs by broth microdilution method; assay type: functional, organism-based
Candida tropicalis [23] = test: Antifungal activity against Candida tropicalis clinical isolate in antibiotic medium 3 assessed as paradoxical growth-related change in CFU treated for 24 hrs by time-kill assay; assay type: functional
Candida tropicalis [24] = test: Antifungal activity against 10^5 CFU/ml Candida tropicalis ATCC 750 in RPMI 1640 medium at 0.4 to 12.5 ug/ml treated for 48 hrs followed by incubation in drug free medium for 48 hrs by broth microdilution method; assay type: functional, organism-based
Candida tropicalis [25] = test: Antifungal activity against 10^5 CFU/ml Candida tropicalis isolate 7 in RPMI 1640 medium at =< 0.09 ug/ml after 24 hrs followed by incubation in drug free medium for 48 hrs by broth microdilution method; assay type: functional, organism-based
Candida tropicalis [26] = test: Antifungal activity against 10^5 CFU/ml Candida tropicalis isolate 5 in RPMI 1640 medium at =< 0.09 ug/ml after 24 hrs followed by incubation in drug free medium for 48 hrs by broth microdilution method; assay type: functional, organism-based
Candida tropicalis [27] = test: Antifungal activity against 10^5 CFU/ml Candida tropicalis isolate 2 in RPMI 1640 medium at =< 0.09 ug/ml after 24 hrs followed by incubation in drug free medium for 48 hrs by broth microdilution method; assay type: functional, organism-based
Candida tropicalis [28] = test: Antifungal activity against > 2 x 10^7 CFU/ml Candida tropicalis isolate 6 in antibiotic medium 3 assessed as paradoxical growth after 24 hrs by broth microdilution method; assay type: functional, organism-based
Candida tropicalis [29] = test: Antifungal activity against 10^5 CFU/ml Candida tropicalis clinical isolates in RPMI 1640 medium at 6.25 ug/ml after 48 hrs followed by incubation in drug free medium for 48 hrs by broth microdilution method; assay type: functional, organism-based
Candida tropicalis [30] = test: Antifungal activity against 10^5 CFU/ml Candida tropicalis isolate 15 in RPMI 1640 medium at 12.5 ug/ml treated for 24 hrs followed by incubation in drug free medium for 48 hrs by broth microdilution method; assay type: functional, organism-based
Candida tropicalis [31] = test: Antifungal activity against 10^5 CFU/ml Candida tropicalis isolate 13 in RPMI 1640 medium at 12.5 ug/ml treated for 24 hrs followed by incubation in drug free medium for 48 hrs by broth microdilution method; assay type: functional, organism-based
Candida tropicalis [32] = test: Antifungal activity against 10^5 CFU/ml Candida tropicalis isolate 5 in RPMI 1640 medium at 12.5 ug/ml treated for 24 hrs followed by incubation in drug free medium for 48 hrs by broth microdilution method; assay type: functional, organism-based
Candida tropicalis [33] = test: Antifungal activity against 10^5 CFU/ml Candida tropicalis isolate 2 in RPMI 1640 medium at 12.5 ug/ml treated for 24 hrs followed by incubation in drug free medium for 48 hrs by broth microdilution method; assay type: functional, organism-based
Candida tropicalis [34] = test: Antifungal activity against > 2 x 10^7 CFU/ml Candida tropicalis isolate 13 in antibiotic medium 3 assessed as partial growth after 24 hrs by broth microdilution method; assay type: functional, organism-based

**Q.** Which results are given for CC[C@H](C)C[C@H](C)CCCCCCCCC(=O)N[C@H]1C[C@@H](O)[C@@H](NCCN)NC(=O)[C@@H]2[C@@H](O)CCN2C(=O)[C@H]([C@H](O)CCN)NC(=O)[C@H]([C@H](O)[C@@H](O)c2ccc(O)cc2)NC(=O)[C@@H]2C[C@@H](O)CN2C(=O)[C@H]([C@@H](C)O)NC1=O [CASPOFUNGIN]?
**A.** Activity (Candida tropicalis [1]): inactive; Activity (Candida tropicalis [2]): inactive; Activity (Candida tropicalis [3]): inactive; Activity (Candida tropicalis [4]): inactive; Activity (Candida tropicalis [5]): inactive; Activity (Candida tropicalis [6]): inactive; Activity (Candida tropicalis [7]): inactive; MIC (Candida tropicalis [8]): 0.024 µg/mL (≈ 0.022 µM); MIC (Candida tropicalis [9]): 0.024 µg/mL (≈ 0.022 µM); MIC (Candida tropicalis [10]): 0.024 µg/mL (≈ 0.022 µM); MIC (Candida tropicalis [11]): 0.024 µg/mL (≈ 0.022 µM); MIC (Candida tropicalis [12]): 0.024 µg/mL (≈ 0.022 µM); Activity (Candida tropicalis [13]): Active; Activity (Candida tropicalis [14]): inactive; Activity (Candida tropicalis [15]): inactive; Activity (Candida tropicalis [16]): inactive; Activity (Candida tropicalis [17]): inactive; Activity (Candida tropicalis [18]): Active; Activity (Candida tropicalis [19]): inactive; Activity (Candida tropicalis [20]): inactive; Activity (Candida tropicalis [21]): Active; Activity (Candida tropicalis [22]): Active; Activity (Candida tropicalis [23]): 0.36 log10CFU/ml; Activity (Candida tropicalis [24]): inactive; Activity (Candida tropicalis [25]): Active; Activity (Candida tropicalis [26]): Active; Activity (Candida tropicalis [27]): Active; Activity (Candida tropicalis [28]): inactive; Activity (Candida tropicalis [29]): inactive; Activity (Candida tropicalis [30]): inactive; Activity (Candida tropicalis [31]): inactive; Activity (Candida tropicalis [32]): inactive; Activity (Candida tropicalis [33]): inactive; Activity (Candida tropicalis [34]): inactive
